Test results taken from patent US5461057A, “Hydro-ethano-indeno-pyridines” (priority 1994, dated 1995).

Legend:
pulmonary resistance = experiment: Pulmonary Resistance in the Anesthetized Rat; type: in vivo; conditions: 0.5 mpk, i.v.; mean of 5 animals; % decrease in pre-drug baseline resistance
How it was run: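 Dialurethane-anesthetized rats (400-500 g) with tracheal and esophageal catheters; air flow and tracheal/esophageal pressures used to derive pulmonary resistance. Compounds given i.v. to 5 animals each; values are mean % decrease from pre-drug baseline resistance.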

methamphetamine toxicity = experiment: Methamphetamine toxicity test in mice; type: in vivo; conditions: Mus musculus, read-out: METHA ED50
Description: The methamphetamine toxicity test in mice was carried out as described in Burn et al, Arch. Int. Pharmacodyn 113:290-295, (1958); and Coscia et al, Arzneim-Forsch (Drug Research) 25:1436-1442, (1975); which are hereby incorporated by reference.
(§1) The results for this test are given below as ED50's in the units of mg/kg.
METHA refers to the methamphetamine toxicity test in mice;

[1] = test system: acetic acid-induced writhing; experiment: Acetic Acid Writhing Test in Mice; type: in vivo, mouse; conditions: Mus musculus, po, read-out: WRITH ED50
Source text: The blockade of writhing induced by the intraperitoneal injection of acetic acid is an established experimental animal model for the screening of antinociceptive drugs (drugs which prevent the appreciation or transmission of pain sensations).
The procedure for the Acetic Acid Writhing Test in Mice is set forth in Hendershot et al, J. Pharmacol. Exp. Therap. 125:237, (1959); Koster et al., Fed. Proc. 18:412, (1959); and international application PCT/US91/06705, filed 20 Sep. 1991, which are hereby incorporated by reference.
The results for this test are given below in the units of mg/kg which is also abbreviated in this specification as mpk. The results for this test are given as effective doses (ED50 's).

metrazole = experiment: Anti-metrazole test in mice; type: in vivo, mouse; conditions: Mus musculus, read-out: MTZ ED50
Description: The anti-metrazole test in mice was carried out as described in Everett et al, J. Pharmacol. Exp. Therap. 81:402-407 (1944); which is hereby incorporated by reference.
as §1

Question: `Cc1ccc(C2=C3CC4CCC(C3c3ccccc32)N4C)cc1` (stereo not shown) [J] was tested. Which “Pulmonary Resistance in Rats, % Inhibition” value (pulmonary resistance) did it give?
Answer: 35%

Question: Which results are given for `COc1ccc(C2=C3CC4CCC(N4)C3c3ccccc32)cc1` (stereo not shown) [Compound B]?
Answer: ED50 (methamphetamine toxicity): > 30 mg/kg; ED50 [1]: > 30 mg/kg; ED50 (metrazole): > 30 mg/kg
